For the assay, the target named is T1, JAK2 JH1 JH2 V617F (Homo sapiens, UniProt O60674, V617F).
T1 construct: JAK2 JH1 JH2 V617F; purchased Thermo Fisher Scientific (Life Technologies) SelectScreen
The assay can be described thus: SelectScreen Z'LYTE. The format is biochemical. The essentials: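 Percent values come from Thermo SelectScreen profiling of NU5455, combining activity and binding assays. CSF1R was run in Z'LYTE format at Km app ATP, and CAMK1 in Adapta format with ATP listed at 10.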

T1 sequence (O60674 532-1132 V617F limits assumed): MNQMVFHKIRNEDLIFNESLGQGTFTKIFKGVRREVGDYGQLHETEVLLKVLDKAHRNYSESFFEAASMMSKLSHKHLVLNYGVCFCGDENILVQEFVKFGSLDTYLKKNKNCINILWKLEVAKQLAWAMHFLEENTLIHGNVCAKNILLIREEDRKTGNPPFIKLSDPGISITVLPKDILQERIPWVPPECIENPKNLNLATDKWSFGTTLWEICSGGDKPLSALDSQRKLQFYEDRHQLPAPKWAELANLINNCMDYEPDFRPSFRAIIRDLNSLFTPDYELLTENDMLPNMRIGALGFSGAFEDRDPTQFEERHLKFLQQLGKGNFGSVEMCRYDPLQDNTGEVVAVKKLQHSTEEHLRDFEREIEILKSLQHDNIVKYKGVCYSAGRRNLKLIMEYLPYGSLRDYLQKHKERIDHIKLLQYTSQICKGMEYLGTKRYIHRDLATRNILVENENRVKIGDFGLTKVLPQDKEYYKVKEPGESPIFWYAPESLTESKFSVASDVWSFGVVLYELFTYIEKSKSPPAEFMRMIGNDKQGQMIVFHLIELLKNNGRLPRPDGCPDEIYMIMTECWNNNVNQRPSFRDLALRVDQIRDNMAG

In general, inhibition refers to the relative decrease from the control value, in per cent. As for `CN(C(=O)CN1CCOCC1)c1ccc2sc3c(-c4cccc5c(=O)cc(N6CC7CCC(C6)O7)oc45)cccc3c2c1` [NU5455], the inhibition at 1 µM is -13.8%.
